Reference: ChEMBL document CHEMBL5223150, “Targeting the PI3K/AKT/mTOR Signaling Pathway in the Treatment of Human Diseases: Current Status, Trends, and Solutions” (J Med Chem, 2022)

Test: Metabolic stability in human liver microsomes assessed as compound remaining after 1 hr
Format: ADME, Microsome
Settings: read-out: Stability

O=C(N1CCN(c2ncnc3[nH]nc(Cl)c23)CC1)C1(c2ccc(Cl)c(Cl)c2)CCNCC1
remaining at 1 h: 80%
